Experimental data from patent US20230000842A1, “METHODS OF TREATING CARTILAGE DISORDERS THROUGH INHIBITION OF CLK AND DYRK” (SAMUMED, LLC, priority 2019, published 2023).

Tests used:
[1] = target: CLK3 kinase (Homo sapiens, UniProt P49761); assay: CLK3 kinase activity assay (Z-lyte FRET); type: biochemical; conditions: Z-lyte Ser/Thr 18 peptide, 156 μM ATP, 1 h at room temperature;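 also: kinase activity read as coumarin/fluorescein emission ratio by FRET, unphosphorylated peptide as 0% and phosphorylated peptide as 100% control, values from non-linear regression of dose-response curves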
Sequence of CLK3 kinase (P49761 whole entry): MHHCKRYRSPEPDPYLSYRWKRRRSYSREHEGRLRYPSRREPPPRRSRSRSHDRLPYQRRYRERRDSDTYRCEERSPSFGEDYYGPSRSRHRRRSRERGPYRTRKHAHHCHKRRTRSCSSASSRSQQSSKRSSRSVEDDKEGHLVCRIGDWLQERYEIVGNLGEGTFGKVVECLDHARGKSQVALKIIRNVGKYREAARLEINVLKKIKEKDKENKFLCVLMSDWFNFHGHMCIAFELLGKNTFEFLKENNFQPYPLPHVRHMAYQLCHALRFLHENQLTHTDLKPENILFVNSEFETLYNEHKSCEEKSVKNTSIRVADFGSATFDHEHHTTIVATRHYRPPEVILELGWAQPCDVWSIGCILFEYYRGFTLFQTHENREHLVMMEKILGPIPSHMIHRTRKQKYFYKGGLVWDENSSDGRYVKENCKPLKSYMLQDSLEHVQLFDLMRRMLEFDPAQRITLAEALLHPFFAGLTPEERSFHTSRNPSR

[2] = tested on: primary human mesenchymal stem cells (hMSCs); assay: Chondrogenesis screening using primary human mesenchymal stem cells; type: cell-based; conditions: Homo sapiens, Mesenchymal stem cells, hMSC chondrogenesis; for EC50: concentration required to induce 50% levels of chondrogenesis with TGF-β3 as positive control, read-out: Conc (nM) of 50% TGF-β3 activity; for Emax: maximum activity relative to TGF-β3 (10 ng/mL) positive control, read-out: Max. Activity as % TGF-β3 activity
Summary of the method: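 Derived values are EC50 for 50% chondrogenesis, maximal activity and the dose giving it. These come from nodule area in passage 3–6 primary hMSCs, expressed as fold change over the mean of 3 same-plate DMSO wells, 2–3 replicates per concentration. TGF-β3 served as positive control.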

[3] = target: CLK2 kinase (Homo sapiens, UniProt P49760); assay: CLK2 kinase activity assay (Z-lyte FRET); type: biochemical; conditions: Z-lyte Ser/Thr 6 peptide, 60 μM ATP, 1 h at room temperature;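 also: FRET read-out as coumarin to fluorescein emission ratio, unphosphorylated peptide as 0% and phosphorylated peptide as 100% controls, duplicate reactions, non-linear regression fit of dose-response curves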
Sequence of CLK2 kinase (P49760 whole entry): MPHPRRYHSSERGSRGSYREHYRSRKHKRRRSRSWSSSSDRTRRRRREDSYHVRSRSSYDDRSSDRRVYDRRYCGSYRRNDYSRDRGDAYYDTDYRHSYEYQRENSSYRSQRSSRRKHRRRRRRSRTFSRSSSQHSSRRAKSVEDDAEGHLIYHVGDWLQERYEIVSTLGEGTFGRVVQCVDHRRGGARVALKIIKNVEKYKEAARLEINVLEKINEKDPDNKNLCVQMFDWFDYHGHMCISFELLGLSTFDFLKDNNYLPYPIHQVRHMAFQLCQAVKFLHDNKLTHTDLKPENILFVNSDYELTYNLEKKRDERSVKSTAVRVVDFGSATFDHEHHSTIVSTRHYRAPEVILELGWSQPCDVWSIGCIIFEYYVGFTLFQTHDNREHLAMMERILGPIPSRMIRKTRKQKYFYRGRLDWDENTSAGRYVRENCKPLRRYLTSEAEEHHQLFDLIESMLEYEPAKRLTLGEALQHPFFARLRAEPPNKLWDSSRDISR

[4] = tested on: Wnt pathway activity (SW480 colon carcinoma cells stably expressing the Sp5-Luc reporter); assay: Wnt pathway activity screening assay (Sp5-Luc reporter gene assay); conditions: Homo sapiens, SW480, Table 4; SW480 cells stably expressing Sp5-Luc reporter, 10-point dose-response from 10 μM, 36 to 48 hours

SMILES	EC50 [1] [nM]	EC50 [2] [nM]	EC50 [3] [nM]	EC50 [4] [nM]	Emax [2] [%]
CCCCC(=O)Nc1cncc(-c2ccc3[nH]nc(-c4cc5c(N6CCCCC6)cccc5[nH]4)c3n2)c1 [compound 458]	2190	100	20	572	68.6
O=C(Nc1cncc(-c2cc3c(-c4cc5c(N6CCCCC6)nccc5[nH]4)n[nH]c3cn2)c1)C1CCC1 [compound 461]	342	–	19	4070	42.4
CC(C)Nc1cncc(-c2cnc3[nH]nc(-c4cc5c(N6CCCCC6)nccc5[nH]4)c3c2)c1 [compound 463]	1280	–	13	3410	33.6
CN(C)Cc1cncc(-c2ccc3[nH]nc(-c4cc5c(N6CCCCC6)cccc5[nH]4)c3c2)c1 [compound 464]	3660	10	13	575	205
c1cc2[nH]c(-c3n[nH]c4ccc(-c5cncc(CN6CCCCC6)c5)cc34)cc2c(N2CCCCC2)n1 [compound 469]	470	–	6	4210	48.1
CN1CCN(c2nccc3[nH]c(-c4n[nH]c5cnc(-c6cncc(N)c6)cc45)cc23)CC1 [compound 472]	1080	–	10	> 10000	49.8
CC(C)C(=O)Nc1cncc(-c2cc3c(-c4cc5c(N6CCN(C)CC6)cccc5[nH]4)n[nH]c3cn2)c1 [compound 474]	2040	–	17	700	36.4
CC(C)C(=O)Nc1cncc(-c2ccc3[nH]nc(-c4cc5c(N6CCN(C)CC6)nccc5[nH]4)c3c2)c1 [compound 475]	569	–	11	7690	21
CC(C)C(=O)Nc1cncc(-c2cnc3[nH]nc(-c4cc5c(N6CCN(C)CC6)nccc5[nH]4)c3c2)c1 [compound 476]	800	30	7	> 10000	61.6
CN1CCN(c2nccc3[nH]c(-c4n[nH]c5ncc(-c6cncc(NC(=O)C7CCCC7)c6)cc45)cc23)CC1 [compound 481]	741	–	9	> 10000	30.3
CN1CCN(c2nccc3[nH]c(-c4n[nH]c5ccc(-c6cncc(NC(=O)C7CCCCC7)c6)cc45)cc23)CC1 [compound 482]	2380	–	14	5270	37.8
CN1CCN(c2nccc3[nH]c(-c4n[nH]c5cnc(-c6cncc(NC(=O)C7CCCCC7)c6)cc45)cc23)CC1 [compound 483]	303	10	8	3420	60.8
CN1CCN(c2nccc3[nH]c(-c4n[nH]c5ccc(-c6cncc(NC(=O)CC7CCNCC7)c6)cc45)cc23)CC1 [compound 484]	428	–	6	> 10000	42.8
CN1CCN(c2cncc3[nH]c(-c4n[nH]c5ccc(-c6cncc(NC(=O)CC7CCNCC7)c6)cc45)cc23)CC1 [compound 485]	303	–	4	> 10000	289
CN1CCN(c2ccnc3[nH]c(-c4n[nH]c5ccc(-c6cncc(NC(=O)c7ccccc7)c6)nc45)cc23)CC1 [compound 488]	2530	10	3	6100	61.8

More lines, main results first:

EC50 [1] [nM]	EC50 [2] [nM]	EC50 [3] [nM]	EC50 [4] [nM]	SMILES	Emax [2] [%]
52	10	1	445	CC(=O)Nc1cncc(-c2ccc3[nH]nc(-c4cc5c(N6CCCCC6)nccc5[nH]4)c3c2)c1 [compound 457]	244
269	30	13	4050	CCCCC(=O)Nc1cncc(-c2ccc3[nH]nc(-c4cc5c(N6CCCCC6)nccc5[nH]4)c3n2)c1 [compound 459]	54.5
231	–	8	3850	O=C(Nc1cncc(-c2cnc3[nH]nc(-c4cc5c(N6CCCCC6)nccc5[nH]4)c3c2)c1)C1CC1 [compound 460]	42.5
293	–	2	4710	CN(C)Cc1cncc(-c2ccc3[nH]nc(-c4cc5c(N6CCCCC6)nccc5[nH]4)c3c2)c1 [compound 465]	220
64	–	3	1840	c1ncc(-c2ccc3[nH]nc(-c4cc5c(N6CCCCC6)cncc5[nH]4)c3c2)cc1CN1CCCC1 [compound 466]	24.7
279	30	12	750	FC1(F)CCN(Cc2cncc(-c3ccc4[nH]nc(-c5cc6c(N7CCCCC7)cccc6[nH]5)c4c3)c2)C1 [compound 467]	160
166	–	5	5270	FC1(F)CCN(Cc2cncc(-c3ccc4[nH]nc(-c5cc6c(N7CCCCC7)ccnc6[nH]5)c4n3)c2)C1 [compound 468]	37.6
40	–	2	8250	CN1CCN(c2cncc3[nH]c(-c4n[nH]c5ccc(-c6cncc(N)c6)cc45)cc23)CC1 [compound 470]	50.9
89	–	3	1170	CN1CCN(c2ccnc3[nH]c(-c4n[nH]c5ccc(-c6cncc(N)c6)cc45)cc23)CC1 [compound 471]	50.2
285	30	3	> 10000	CCC(=O)Nc1cncc(-c2cc3c(-c4cc5c(N6CCN(C)CC6)nccc5[nH]4)n[nH]c3cn2)c1 [compound 473]	70
204	–	3	3450	CC(C)CC(=O)Nc1cncc(-c2ccc3[nH]nc(-c4cc5c(N6CCN(C)CC6)ccnc5[nH]4)c3n2)c1 [compound 477]	49.5
137	10	9	1880	CN1CCN(c2nccc3[nH]c(-c4n[nH]c5cnc(-c6cncc(NC(=O)C(C)(C)C)c6)cc45)cc23)CC1 [compound 478]	88.2
145	–	4	3480	CN1CCN(c2cncc3[nH]c(-c4n[nH]c5ccc(-c6cncc(NC(=O)CC(C)(C)C)c6)cc45)cc23)CC1 [compound 479]	30.8
186	–	7	3870	CN1CCN(c2ccnc3[nH]c(-c4n[nH]c5ccc(-c6cncc(NC(=O)CC(C)(C)C)c6)nc45)cc23)CC1 [compound 480]	30.3
291	–	6	2140	CN1CCN(c2nccc3[nH]c(-c4n[nH]c5ccc(-c6cncc(NC(=O)c7ccccc7)c6)cc45)cc23)CC1 [compound 486]	34.6
302	10	5	2800	CN1CCN(c2nccc3[nH]c(-c4n[nH]c5cnc(-c6cncc(NC(=O)c7ccccc7)c6)cc45)cc23)CC1 [compound 487]	67
